For orientation: melting point means the temperature of the solid-liquid transition.

Our source for the melting point values is a melting point compilation (Tetko et al.; mined from patent text by program, amines drawn as free bases though some values may be those of a salt).

The structures appear in SMILES notation.

Regarding `CN(C)C(=O)c1cccc(NC(=O)Oc2ccccc2)c1`, the melting point lay within 151 to 153 °C.
Take `CCCCc1ncc(CC(NC(=O)C(c2ccccc2)c2ccccc2)C(=O)O)n1Cc1ccccc1Cl` (stereo not given): the melting point lay within 222 to 225 °C.
The figure for `CCCc1nc2c(N)nc3ccccc3c2n1O` is 232 to 235 °C; for `COc1cc2ccc(Br)cc2cc1C12CC3CC(CC(C3)C1)C2` it is 164 to 168 °C.
For `Cc1nc(NC(=O)c2cnn3c(C(F)F)cc(-c4ccc(C(F)(F)F)cc4)nc23)sc1S(=O)(=O)N(CCO)CCO` the value was 191 °C; for `Cc1c(C)c(C=O)c2c(c1C)CCO2`, 90 °C.
On to `Cc1c(-c2ccccc2)oc2c(C(=O)CBr)cccc2c1=O`, for which the melting point was 134 to 135 °C.
The figure for `OCc1cn(-c2cc(F)cc(C(F)(F)F)c2)cn1` is 144 to 145 °C; for `OCCOCc1c(Br)c(Br)c(COCCO)c(Br)c1Br` it is 145 to 147 °C; for `CCCC(=O)C1=C(O)CC(c2ccc(OC)c(NC(C)=O)c2)CC1=O` (stereo not given) it is 102 to 106 °C.
The compound `Cc1cc(C)nc(-n2nc(C)nc2N)n1` showed a melting point of 237 °C.
`COc1cccnc1C(O)c1cc(F)ccc1F` (stereo not given) displayed a melting point of 94 to 95 °C.
As for `O=C(O)c1cccc(Cn2ccn(C3CCc4ccccc4C3)c2=S)c1` (stereo not given), the melting point was in the range of 252 to 254 °C.
The figure for `CC(=O)OCc1cc([N+](=O)[O-])ccc1C` is 52 to 53.5 °C.
`N#Cc1ccc(/C=C/C2=CCN(Cc3c[nH]c4ncccc34)CC2)cc1` came in with a melting point of 213 to 215 °C.
The compound `N#Cc1ccc2c(CCC3CCN(Cc4ccccc4)CC3)noc2c1` returned a melting point of 113 to 114 °C.
The compound `COc1c(Cl)ccc(-c2cc(N)c(Cl)c(C(=O)NO)n2)c1F` showed a melting point of 166 to 169 °C.
`CC(=O)Nc1ccc([N+](=O)[O-])cc1-c1cc([N+](=O)[O-])ccc1NC(C)=O`: the melting point fell in the range of 263 to 265 °C.
The compound `Cc1cccc(Nc2cc(Cl)nc(SCC(=O)O)n2)c1C` yielded a melting point of 146 to 151 °C.
For the compound `COc1ccc(OC)c(CC2=C(C)C(=O)C3C=CC=CC3C2=O)c1` (stereo not given), the melting point lay in the range of 140 to 142 °C.
For `C=C(c1ccc(C(=O)O)s1)c1cc2cc(C(F)(F)F)ccc2n1S(=O)(=O)c1cccc(C(C)(C)C)c1` the value was 195 °C; for `O=[N+]([O-])c1ccc2c(c1)CN[C@H](CO)C2`, 184 °C; for `COc1nc(C)nc(NC(=O)NS(=O)(=O)c2ccccc2OC(F)(F)C(F)(F)F)n1`, 157 to 159 °C.
Compound `CN(Cc1coc(C=Cc2ccc(C(F)(F)F)cc2)n1)c1ccc(OCCCn2ccnn2)cc1` came in with a melting point of 137 to 138 °C.
The figure for `CC1(C)C(=O)Oc2ccc3cc(C#N)c(C(n4cncn4)n4cncn4)cc3c21` is 240 to 242 °C; for `CCOC(=O)[C@H](CCc1ccccc1)N[C@@H](C)C(=O)N1C(=O)N(Cc2ccccc2)C[C@H]1C(=O)O` it is 56 to 57 °C.
Take `COc1ccc(C(=O)N2CCN(c3c(C)c(C)c4c(c3C)C(c3ccc(C)cc3)C(C)(C)O4)CC2)cc1` (stereo not given): the melting point lay in the range of 163 to 165 °C.
Compound `CON=C(C)c1cccc(Nc2nc(OC)cc(OC)n2)c1C(=O)OC` yielded a melting point of 82 to 84 °C.
For the compound `N#CCCNC(=O)c1cccc(-c2cccc(Oc3ccc4c(c3)CCC4)n2)c1`, the melting point lay in the range of 122 to 123 °C.
For `COc1cc(C=C(C)[N+](=O)[O-])cc2c1OC(C)(C)C2` the value was 120 to 121 °C.
With `COc1ccc(-c2nc(C)c(C(N)=O)s2)cc1OC`, the melting point fell in the range of 218 to 220 °C.
The figure for `CCCNC(=O)C1(CC=Cc2ccccc2)c2ccccc2CCc2ccccc21` is 159 °C; for `COc1ccc(Sc2ccc(CC(=O)O)cc2)cc1` it is 85 to 87 °C.
`O=C(O)CCC/C=C/c1nn(-c2ccc([N+](=O)[O-])cc2)c2c1CCC2` registered a melting point of 163 to 164 °C.
The figure for `CS(=O)(=O)Oc1ccc(-c2cc3ccc(OS(C)(=O)=O)cc3s2)cc1` is 195 to 197 °C.
